Measurements reported in PMC2935307 (Biochemical pharmacology, 2010).
“And” between values parts separate entries of the source, which are not always exact repeats. Equal entries are not always repeated. Where two headings read alike, the source gives them in different places.

Experiments:
α4β2*-nAChR [1] = molecular target: T1, α4β2*-nAChR (Mus musculus, UniProt O70174+Q9ERK7); format: biochemical
α4β2*-nAChR [2] = molecular target: T1, α4β2*-nAChR; experiment: biochemical
α4β2*-nAChR [3] = molecular target: T1, α4β2*-nAChR; conditions: cited from earlier work
[4] = molecular target: high affinity epibatidine binding sites (Mus musculus, UniProt O70174+Q9ERK7); experiment: biochemical
high affinity epibatidine binding sites, sequence (Q9ERK7 26-501): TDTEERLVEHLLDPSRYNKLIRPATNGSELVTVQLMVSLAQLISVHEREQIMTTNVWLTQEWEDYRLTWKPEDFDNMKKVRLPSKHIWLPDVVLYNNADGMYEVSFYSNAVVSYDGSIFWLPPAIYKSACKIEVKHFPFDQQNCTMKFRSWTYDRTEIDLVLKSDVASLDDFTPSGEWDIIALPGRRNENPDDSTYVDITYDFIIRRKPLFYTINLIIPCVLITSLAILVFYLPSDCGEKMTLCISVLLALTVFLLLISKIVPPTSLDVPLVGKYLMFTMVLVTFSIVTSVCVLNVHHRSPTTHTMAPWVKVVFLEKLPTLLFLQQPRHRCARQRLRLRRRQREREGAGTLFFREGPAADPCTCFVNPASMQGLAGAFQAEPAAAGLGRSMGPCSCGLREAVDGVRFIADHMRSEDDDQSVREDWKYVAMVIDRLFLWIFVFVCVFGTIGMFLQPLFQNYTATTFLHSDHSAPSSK
high affinity epibatidine binding sites, sequence (O70174 31-629): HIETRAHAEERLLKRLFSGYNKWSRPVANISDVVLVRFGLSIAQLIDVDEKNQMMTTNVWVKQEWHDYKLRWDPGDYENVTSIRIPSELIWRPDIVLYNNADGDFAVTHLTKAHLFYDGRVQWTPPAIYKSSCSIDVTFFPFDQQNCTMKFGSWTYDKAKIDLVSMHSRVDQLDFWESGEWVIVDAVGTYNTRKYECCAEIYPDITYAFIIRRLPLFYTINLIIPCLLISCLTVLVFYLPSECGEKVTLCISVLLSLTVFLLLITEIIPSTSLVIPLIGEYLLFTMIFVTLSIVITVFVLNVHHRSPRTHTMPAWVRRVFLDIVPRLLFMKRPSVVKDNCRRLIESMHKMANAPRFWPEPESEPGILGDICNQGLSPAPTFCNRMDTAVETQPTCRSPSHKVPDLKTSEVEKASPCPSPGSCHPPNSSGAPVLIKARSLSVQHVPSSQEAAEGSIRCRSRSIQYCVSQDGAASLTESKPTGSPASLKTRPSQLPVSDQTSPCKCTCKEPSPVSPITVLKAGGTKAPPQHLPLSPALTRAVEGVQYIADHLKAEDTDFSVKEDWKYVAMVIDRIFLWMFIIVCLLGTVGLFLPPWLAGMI

[5] = test system: α4β2*-nAChR binding sites; conditions: mice treated chronically with nicotine; cited from earlier work
α4β2-nAChR = conditions: read-out: IC50 for desensitization by nicotine; transfected cells; cited from earlier work
α4β2*-nAChR [6] = molecular target: T1, α4β2*-nAChR; conditions: total efflux normalized to baseline
[7] = molecular target: epibatidine binding sites (Mus musculus, UniProt O70174+Q9ERK7)
epibatidine binding sites, sequence (Q9ERK7 26-501): as the sequence (Q9ERK7 26-501) above
epibatidine binding sites, sequence (O70174 31-629): as the sequence (O70174 31-629) above

[8] = IC50 for desensitization of the LS component
[9] = HS EC50 for 86Rb+ efflux from Marks et al., 1999, errors by Taylor's expansion
[10] = LS EC50 for 86Rb+ efflux from Marks et al., 1999, errors by Taylor's expansion
[11] = cortex, nicotine infusion 0.5 mg/kg/hr
[12] = cortex, nicotine infusion 4.0 mg/kg/hr
[13] = thalamus, nicotine infusion 0.5 mg/kg/hr
[14] = thalamus, nicotine infusion 4.0 mg/kg/hr

T1 sequence (Q9ERK7 26-501): as the sequence (Q9ERK7 26-501) above
T1 sequence (O70174 31-629): as the sequence (O70174 31-629) above

Structure (SMILES): Clc1ccc(C2CC3CCC2N3)cn1 (racemic) [epibatidine, (±)-epibatidine]
- % des (α4β2*-nAChR [1]): 69.9 ± 6.1% and 64.5 ± 11.7% and 96.7 ± 8.9% and 93.8 ± 7.4%
- Ratio KI High Affinity Binding/Desensitization IC50 (α4β2*-nAChR [2]): 0.065±0.022
- Ratio: HS EC50/Desensitization IC50 (α4β2*-nAChR [2]): 154±44
- Ratio: LS EC50/Desensitization IC50 (α4β2*-nAChR [2]): 6000 and 6000±870
- IC50 (α4β2*-nAChR [2]; IC50 Desensitization): 370 ± 20 pM
- IC50 (α4β2*-nAChR [2]; IC50 for desensitization of the HS component): 330 ± 90 pM
- IC50 (α4β2*-nAChR [2]; [8]): 380 ± 90 pM
- Difference in EC50 values for stimulation of HS and LS responses (α4β2*-nAChR [3]; mouse brain synaptosomes): 39 fold
- Ki [4]: 24 ± 8 pM

Structure (SMILES): O=c1cccc2n1C[C@@H]1CNC[C@H]2C1 [cytisine]
- Ratio KI High Affinity Binding/Desensitization IC50 (α4β2*-nAChR [2]): 0.119±0.011
- Ratio: HS EC50/Desensitization IC50 (α4β2*-nAChR [2]; [9]): 4.8
- IC50 (α4β2*-nAChR [2]; IC50 Desensitization): 2700 ± 200 pM
- IC50 (α4β2*-nAChR [2]; [8]): 5400 ± 1400 pM
- Ratio: LS EC50/Desensitization IC50 (α4β2*-nAChR [2]; [10]): 56000±23000
- Difference in EC50 values for stimulation of HS and LS responses (α4β2*-nAChR [3]): 11,500 fold
- Ki [4]: 320 ± 20 pM

Structure (SMILES): CNC(=O)OCC[N+](C)(C)C.[Cl-] [methylcarbachol, methycarbachol chloride]
- % des (α4β2*-nAChR [1]): 50.9 ± 8.8% and 56.0 ± 8.1% and 94.3 ± 7.3% and 88.7 ± 6.4%
- Ratio: HS EC50/Desensitization IC50 (α4β2*-nAChR [2]; [9]): 380
- Ratio: LS EC50/Desensitization IC50 (α4β2*-nAChR [2]; [10]): 56,000
- Ratio KI High Affinity Binding/Desensitization IC50 (α4β2*-nAChR [2]; errors by Taylor's expansion): 0.156±0.042
- Difference in EC50 values for stimulation of HS and LS responses (α4β2*-nAChR [3]; mouse brain synaptosomes): 38 fold
- Ki ([4]; read-out: Ki, high affinity epibatidine binding): 7900 ± 1700 pM

Structure (SMILES): CN1CCC[C@H]1c1cccnc1 [nicotine]
- average dose for half-maximal upregulation of α4β2*-nAChR binding sites [5]: 0.44 mg/kg/h
- High Sensitivity 86Rb+ Efflux (maximal) (α4β2*-nAChR [6]; [11]): 2.06±0.19
- Low Sensitivity 86Rb+ Efflux (maximal) (α4β2*-nAChR [6]; [11]): 6.80±0.50
- High Sensitivity 86Rb+ Efflux (maximal) (α4β2*-nAChR [6]; [12]): 1.88±0.11
- Low Sensitivity 86Rb+ Efflux (maximal) (α4β2*-nAChR [6]; [12]): 5.63±0.80
- High Sensitivity 86Rb+ Efflux (maximal) (α4β2*-nAChR [6]; [13]): 10.19±0.99
- Low Sensitivity 86Rb+ Efflux (maximal) (α4β2*-nAChR [6]; [13]): 13.84±2.48
- High Sensitivity 86Rb+ Efflux (maximal) (α4β2*-nAChR [6]; [14]): 6.76±1.19
- Low Sensitivity 86Rb+ Efflux (maximal) (α4β2*-nAChR [6]; [14]): 12.52±1.96
- [125I]-Epibatidine Bound [7, 11]: 127.9±1.1 fmol/mg protein
- [125I]-Epibatidine Bound [7, 12]: 139.0±1.2 fmol/mg protein
- [125I]-Epibatidine Bound [7, 13]: 240.7±2.5 fmol/mg protein
- [125I]-Epibatidine Bound [7, 14]: 256.8±2.9 fmol/mg protein
- Difference in EC50 values for stimulation of HS and LS responses (α4β2*-nAChR [3]): 94 fold
